Data as given in patent EP1676575A2, “MUCIN PRODUCTION INHIBITOR” (TAIHO PHARMACEUTICAL COMPANY LIMITED, priority 2003, dated 2005).

What was measured:
NCI-H292 cells = test: Mucin production inhibitory action (EGF-stimulated NCI-H292 cells, mucin in culture supernatant by ELISA); format: cell-based, human; settings: for inhibition at 1 µM / inhibition at 3 µM / inhibition at 10 µM: Homo sapiens, EGF 25 ng/mL, 48 hours, NCI-H292 cells, read-out: Percent inhibition of mucin production (%); for inhibition at 1 µM: Concentration 1 µM; for inhibition at 3 µM: Concentration 3 µM; for inhibition at 10 µM: Concentration 10 µM; for production of mucin (effect in words): summary of Table 1, EGF-stimulated NCI-H292 cells
Protocol: The test was carried out in accordance with a partially modified method of Takeyama et al. (Proc. Natl. Acad. Sci. USA, Vol. 96, P. 3081-3086, 1999). The specific procedure will be described as follows. NCI-H292 cells, which are human respiratory tract epithelial cell lines, were suspended in a 10%FCS-containing RPMI 1640 culture medium, and disseminated to a 12-well culture plate so that the cell concentration of each well was adjusted to 2 x 10^5 cell/well, followed by culturing for two days. Subsequently, the culture medium was changed to a 0.2%FCS-containing RPMI culture medium, followed by culturing for another two days. The thus-cultured cells were employed in the test. Each test drug and EGF (25 ng/mL) were added to each well, and the mucin level of the supernatant of the culture 48 hours after initiation of culturing was determined through the ELISA method. Percent inhibition (%) with regard to control value was calculated by supposing the difference produced by subtracting normal value from control value to be 100%. In this case, the control value is defined as the mucin amount in the culture supernatant to which only EGF was added, while the normal value is defined as the muchin amount in the culture supernatant containing neither of test drug and EGF. In addition, cilomilast (J. Pharmacol. Exp. Ther., Vol. 284, p. 420-426, 1998) and roflumilast (J. Pharmacol. Exp. Ther., Vol. 297, p. 267-279, 2001), which are typical phosphodiesterase (IV) inhibitors were also tested in a similar manner.

[1] = tested on: goblet cells in the respiratory tract epithelium; test: Inhibitory effect on hyperplasia of goblet cells in the respiratory tract epithelium (Sephadex-induced, PAS staining); format: in vivo, Lewis Wistar rats; settings: Fig. 1; oral, once per day for seven days; Sephadex-treated rats; numbers only in the figure
Protocol: The test was carried out in accordance with a partially modified method of Matsubara et al. (Int. Arch. Allergy Immunol., Vol. 116, p. 67-75, 1998). The specific procedure will be described as follows. To each of the 7-week old male Lewis Wistar rats, a Sephadex suspension (0.1 mg/mL/head) was intravenously administered (total three times: day 0, 2, and 5). Two days after the final administration, the rat was slaughtered by exsanguination under anesthetic with pentobarbital. The lung tissue was extirpated from the rat and immersed in a neutral formalin buffer for fixation. […] The ratio of the PAS-stained positive area to the respiratory tract epithelium was calculated by use of an image analysis software (Winroof). Each test compound was suspended in 0.5% hydroxypropylmethyl cellulose (HPMC), and the suspension was orally administered once per day for continuous seven days from the start of administration of Sephadex. In the Figure, numerical data are represented by mean value ± standard deviation (each group: 11-12 samples).

Brown Norway rats = test: Inhibitory effect on hyper-secretion of respiratory tract mucus (LPS-induced, mucus in BALF by UEA-1 lectin assay); format: in vivo; settings: mean ± standard deviation; for Mucus level of BALF: LPS 100 µg intratracheal, 6 samples; for Percent inhibition (% ): mucus level of BALF vs control and normal
Protocol: The procedure of the test was based on a partially modified method of Tesfaigzi et al. (Am. J. Physiol. Lung Cell Mol. Physiol., Vol. 279, p. L1210-L1217, 2000). The specific procedure will be described as follows. To each of the 7-week male Brown Norway rats, LPS (derived from E. coli., strain 0111: B4) 100 µg was intratracheally administered under anesthetic with ether, thereby inducing inflammation. Two days after administration of LPS, the rat was slaughtered under anesthetic with pentobarbital, and the extirpated respiratory tract was washed with PBS containing 5mM EDTA and 5mM dithiothreitol (3 mL). The amount of mucus contained in the collected BALF was determined through a lectin assay method employing UEA-1. Each test drug was suspended in a 0.5% HPMC, and the suspension was orally administered one hour before administration of LPS and on the following day. In Table 2, numerical data are represented by mean value ± standard deviation (each group: 6 samples). Percent inhibition (%) was calculated in the same way as in Test Example 1.

Structure (SMILES) | inhibition at 1 µM (NCI-H292 cells) [%] | inhibition at 3 µM (NCI-H292 cells) [%] | inhibition at 10 µM (NCI-H292 cells) [%] | hyperplasia of goblet cells (effect in words) [1] | Mucus level of BALF (Brown Norway rats; 10 mg/kg oral) [ng/mL] | Percent inhibition (% ) (Brown Norway rats; 10 mg/kg oral) [%] | Mucus level of BALF (Brown Norway rats; 30 mg/kg oral) [ng/mL] | Percent inhibition (% ) (Brown Norway rats; 30 mg/kg oral) [%] | production of mucin (effect in words) (NCI-H292 cells)
COc1ccc(-c2nc3cc(-n4cncn4)ccc3[nH]2)cc1OCC1CC1 [Compound 1] | 18.1 | 49.4 | 88.6 | inhibitory effect | 202.4 ± 93.1 | 53.2 ± 25.7 | 166.6 ± 43.6 | 63.0 ± 12.0 | 
COc1ccc(-c2nc3cc(-n4cncn4)ccc3[nH]2)cc1OC1CCCC1 [Compound 2] | 57.1 | 53.3 | 80.8 |  |  |  |  |  | 
COc1ccc([C@]2(C#N)CC[C@@H](C(=O)O)CC2)cc1OC1CCCC1 [Cilomilast, cilomilast, reference compound] | -21.4 | -17.2 | -35.2 |  |  |  |  |  | promoted production of mucin
COc1ccc(-c2nc3cc(-n4cncn4)ccc3[nH]2)cc1OC [Compound 3] | 60 | 74.9 | 83.9 |  |  |  |  |  | 
COc1ccc(-c2nc3cc(-n4cncn4)ccc3[nH]2)cc1OCC(C)C [Compound 6] | 15.4 | 51.4 | 102 |  |  |  |  |  | 
COc1cc(-c2nc3cc(-n4cncn4)ccc3[nH]2)ccc1OCC1CC1 [Compound 4] | 22.7 | 48.8 |  |  |  |  |  |  | 
O=C(Nc1c(Cl)cncc1Cl)c1ccc(OC(F)F)c(OCC2CC2)c1 [Roflumilast, roflumilast, reference compound] | -37.4 | -28.7 | -16.8 |  |  |  |  |  | promoted production of mucin
